Test: Partition of cannabinoids between degummed cannabis oil miscella and water/ethanol/base extraction solvent in a fiber conduit contactor
Format: physicochemical
Parameters: scale not given here
Excerpt: Degummed miscella from Example 1A were used to investigate the extraction of acid cannabinoids into a water/ethanol solvent using a fiber conduit contactor. Bases tested included sodium bicarbonate (NaHCO3), sodium carbonate (Na2CO3), potassium bicarbonate (KHCO3), and potassium carbonate (K2CO3). The hardness difference between a sodium and potassium radii (smaller radii are harder, larger radii are softer) creates a variation in the property of the resulting soaps. Sodium salts give a so-called “harder” soap that is more likely to be rejected from the crude miscella. Switching from bicarbonate to carbonate has two effects: (1) higher ion count in solution, thereby increasing ionic strength/polarity; and (2) increasing the pH by approximately 1 pH unit for the same wt % solution. This increased polarity can be used to enforce selectivity of the desired compounds.
As shown in the results below, there are multiple options for extracting specific combinations of cannabinoids. The bicarbonate bases gave a preference to acid cannabinoids, whereas the stronger carbonate bases were able to increase the total mass transfer. These parameters can be used to control the outflow product streams. The partition coefficients for various combinations are summarized in Table 3 and can be used to determine the optimal extraction solvent for a target compound or goal.
In Table 3 above, the Examples are ordered by decreasing polarity from top to bottom. A lower number specifies a preference for extraction and a high number specifies a preference to remain in the neutral oil. Blank squares are where coefficients could not be calculated.

[1] = Base K2CO3, H2O/EtOH/Base (wt %) 68.3/29.1/2.5
[2] = Base K2CO3, H2O/EtOH/Base (wt %) 77.9/19.5/2.6
[3] = Base K2CO3, H2O/EtOH/Base (wt %) 82.8/14.7/2.5
[4] = Base K2CO3, H2O/EtOH/Base (wt %) 87.5/10/2.5
[5] = Base Na2CO3, H2O/EtOH/Base (wt %) 68.4/29.1/2.5
[6] = Base Na2CO3, H2O/EtOH/Base (wt %) 73.2/24.2/2.6
[7] = Base Na2CO3, H2O/EtOH/Base (wt %) 77.6/19.9/2.5
[8] = Base Na2CO3, H2O/EtOH/Base (wt %) 82.9/14.5/2.6
[9] = Base Na2CO3, H2O/EtOH/Base (wt %) 87.8/9.7/2.6
[10] = Base NaHCO3, H2O/EtOH/Base (wt %) 67.8/29.7/2.4, lower = preference for extraction, higher = remains in neutral oil
[11] = Base NaHCO3, H2O/EtOH/Base (wt %) 72.9/24.6/2.5
[12] = Base NaHCO3, H2O/EtOH/Base (wt %) 77.9/19.6/2.5
[13] = Base NaHCO3, H2O/EtOH/Base (wt %) 81.2/16.3/2.5
[14] = Base NaHCO3, H2O/EtOH/Base (wt %) 879./9.7/2.4
[15] = Base KHCO3, H2O/EtOH/Base (wt %) 68.1/29.4/2.6
[16] = Base KHCO3, H2O/EtOH/Base (wt %) 73.1/24.3/2.6
[17] = Base K2CO3, H2O/EtOH/Base (wt %) 73.0/24.5/2.5
[18] = Base KHCO3, H2O/EtOH/Base (wt %) 78.0/19.5/2.5
[19] = Base KHCO3, H2O/EtOH/Base (wt %) 82.7/14.8/2.5
[20] = Base NaHCO3, H2O/EtOH/Base (wt %) 68.4/29.5/2.0
[21] = Base NaHCO3, H2O/EtOH/Base (wt %) 69.0/29.6/1.5
[22] = Base NaHCO3, H2O/EtOH/Base (wt %) 69.9/29.9/0.25

Row | SMILES | Partition coefficient [1] | Partition coefficient [2] | Partition coefficient [3] | Partition coefficient [4] | Partition coefficient [5] | Partition coefficient [6] | Partition coefficient [7] | Partition coefficient [8] | Partition coefficient [9] | Partition coefficient [10] | Partition coefficient [11] | Partition coefficient [12] | Partition coefficient [13] | Partition coefficient [14] | Partition coefficient [15] | Partition coefficient [16] | Partition coefficient [18] | Partition coefficient [19] | also measured
1 | CCCCCc1cc(O)c2c(c1)OC(C)(CCC=C(C)C)C=C2 (stereo not shown) [CBC, cannabichromene] | 0.6 | 0.23 | 0.23 | 0.16 | −0.2 | −0.16 | −0.21 | −0.14 | 0.22 | 0.54 | 0.83 | 1.42 | 1.33 | 1.21 | – | – | – | – | –
2 | CCCCCc1cc2c(c(O)c1C(=O)O)C=CC(C)(CCC=C(C)C)O2 (stereo not shown) [CBCA, cannabichromenic acid] | 0.22 | −0.29 | −0.25 | −0.2 | 0.93 | 1.09 | 1.08 | 1.15 | 1.48 | 0.57 | 1.14 | – | 1.24 | 1.17 | 2.09 | 2.59 | – | – | –
3 | C=C(C)[C@@H]1CCC(C)=C[C@H]1c1c(O)cc(CCCCC)cc1O [CBD, cannabidiol, reference compound] | 0.55 | 0.19 | 0.19 | 0.1 | −0.87 | −0.86 | −0.94 | −0.9 | −0.55 | 0.48 | 0.78 | 1.29 | 1.25 | 1.14 | 0.6 | 1.06 | 1.59 | 1.43 | Partition coefficient [17]: 0.87; Partition coefficient [20]: 1.4; Partition coefficient [21]: 1.86
4 | C=C(C)[C@@H]1CCC(C)=C[C@H]1c1c(O)cc(CCCCC)c(C(=O)O)c1O [CBDA, cannabidiolic acid] | 0.04 | −0.16 | −0.08 | 0 | −2.37 | −2.22 | −2.22 | −2.11 | −1.75 | 0.43 | 0.68 | 1.09 | 1.05 | 0.96 | −1.02 | −0.59 | 0.04 | 0.21 | Partition coefficient [17]: 0.45; Partition coefficient (Base KHCO3, H2O/EtOH/Base (wt %) 86.3/11.3/2.5): 0.19; Partition coefficient [20]: −0.19; Partition coefficient [21]: 0.1; Partition coefficient (Base NaHCO3, H2O/EtOH/Base (wt %) 69.2/29.8/1.0): 0.22; Partition coefficient [22]: 0.38
5 | CCCCCc1cc(O)c(C/C=C(\C)CCC=C(C)C)c(O)c1 [CBG, cannabigerol] | – | 0.01 | 0.05 | −0.07 | 1.58 | 1.6 | 1.53 | 1.59 | 1.91 | 0.46 | 0.76 | – | – | – | – | – | – | – | Partition coefficient [22]: 2.62
6 | CCCCCc1cc(O)c(C/C=C(\C)CCC=C(C)C)c(O)c1C(=O)O [CBGA, cannabigerolic acid] | 0.15 | −0.19 | −0.15 | −0.1 | −0.57 | −0.47 | −0.5 | −0.44 | −0.14 | 0.46 | 0.76 | 1.2 | 1.19 | 1.1 | 0.33 | 0.72 | 1.4 | 1.61 | –
7 | CCCCCc1cc(O)c2c(c1)OC(C)(C)[C@@H]1CCC(C)=C[C@@H]21 [THC, tetrahydrocannabinol, reference compound] | 0.59 | 0.1 | 0.09 | 0.13 | 0.22 | 0.2 | 0.1 | 0.13 | 0.47 | 0.77 | 1.03 | 1.43 | 1.28 | 1.17 | – | – | – | – | –
8 | CCCCCc1cc2c(c(O)c1C(=O)O)[C@@H]1C=C(C)CC[C@H]1C(C)(C)O2 [THCA, tetrahydrocannabinolic acid] | 0.28 | −0.09 | −0.05 | 0.15 | −0.18 | −0.02 | −0.02 | 0.06 | 0.41 | 0.91 | 1 | 1.33 | 1.16 | 1.12 | 1.26 | 1.76 | – | – | –
